# Assay results published in patent US20100048604A1, “Ligands for Aldoketoreductases” (priority 2004, published 2010).
# Residue numbers refer to the chain shown, from its start.
# Columns and labels:
# Type in all cases: biochemical
# AKR1C1 = target: T1, AKR1C1 (Homo sapiens, UniProt Q04828); assay: Steady state kinetic parameters of fluorogenic substrates with purified AKR1C isozymes; set-up: key: no activity = 10 μg enzyme produced less than 0.1 nmol product per min (determined fluorimetrically); settings: isozyme 1C1; 10 μg enzyme, fluorimetric
# T1 construct: gift of the Penning lab (University of Pennsylvania School of Medicine)
# T1 sequence (Q04828 1-323): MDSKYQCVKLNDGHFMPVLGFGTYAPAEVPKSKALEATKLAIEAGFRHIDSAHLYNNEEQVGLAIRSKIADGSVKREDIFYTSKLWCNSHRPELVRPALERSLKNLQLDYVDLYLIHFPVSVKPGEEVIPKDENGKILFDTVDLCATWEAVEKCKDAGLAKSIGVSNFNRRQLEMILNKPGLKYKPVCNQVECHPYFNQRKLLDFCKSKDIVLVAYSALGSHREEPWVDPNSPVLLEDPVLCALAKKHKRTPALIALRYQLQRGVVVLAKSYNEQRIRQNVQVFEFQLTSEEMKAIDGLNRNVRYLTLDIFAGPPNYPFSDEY
# Excerpt: (§1) AKR1C2 and AKR1C3 Selective Probes: Probes (5a-5i) were examined as substrates for the four purified human HSD isozymes (AKR1C1-AKR1C4) under standard assay conditions [catalytic quantities of enzyme, an excess of cofactor (NADPH)]. The initial reaction rates were used to derive standard kinetic parameters (kcat and Km, Materials and Methods).
# (§2) Substrate tolerance of AKR1Cs: Isozyme Activity with 5a-5i: Activity of the second generation of fluorogenic substrates with the AKR1C isozymes was determined as follows. To a STARNA semi-micro fluorimeter cell (with 4 polished windows) was added 100 μL of 1 M potassium phosphate buffer (pH 6), 840 μL doubly deionized water, and 20 μL of 12.5 mM NADPH. After mixing the aqueous components thoroughly, 20 μL of acetonitrile was added as a cosolvent and mixed well. 20 μL of 2.5 mM second generation fluorogenic ketone in acetonitrile (5a-5i) was then added and mixed. 4 μL of undiluted AKR1C (provided generously by the Penning lab at concentrations of 2.5 mg/mL) were then added to the cuvette for a total of 10 μg purified enzyme in the 1 mL assay volume. Fluorescence arising from the respective alcohol reduction product was then monitored over the course of 5-10 minutes.
# (§3) Binding constant and catalytic rates (Km and kcat) of the second generation of fluorogenic substrates was determined as follows. To a STARNA semi-micro fluorometer cell (with 4 polished windows) was added 100 μL of 1 M potassium phosphate buffer (pH 6), 840 μL doubly deionized water, and 20 AL of 12.5 mM NADPH. After mixing the aqueous components thoroughly, 20 μL of acetonitrile was added as a cosolvent and mixed well. 20 μL of the second generation fluorogenic ketone (5a-5i) was then added and mixed to achieve assay concentrations of 5Km to Km/5. To initiate the reduction, 2 or 4 μL of diluted AKR1C (1:2 to 1:100, depending on the kinetics of a particular isozyme's reduction of a substrate) was then added to the cuvette. Fluorescence arising from the respective alcohol reduction product was then monitored over the course of 3 minutes (Excitation and emission band pass slits both at 4 nm, lamp 700 V, λexc 410 nm, λem 510). The rate of product formation, expressed in units of nanomoles per minute, were calculated according to previously published procedures (Wierzchowski, J.; Dafeldecker, W. P.; Holmquist, B.; Vallee, B. L. Anal. Biochem. 1989, 178, 57-62):
# (§4) initial rate=[nst×(Ft−F0)/(Fst)]/t (1)
# (§5) where Ft and F0 represent the fluorescence at times t and 0 minutes, nst is the nanomoles of product in a known concentration of product, and Fst is the fluorescence resulting from nst of product. Kinetic parameters were approximated by GraFit (Erithacus Software, Surrey, UK) nonlinear regression analysis program to fit the untransformed data to a hyperbolic function as originally described (Wierzchowski, J.; Dafeldecker, W. P.; Holmquist, B.; Vallee, B. L. Anal. Biochem. 1989, 178, 57-62). Reported enzymatic kinetic parameters are the average of three independent determinations from three different preparations of substrate and enzyme.
# AKR1C4 = target: T2, AKR1C4 (Homo sapiens, UniProt P17516); assay: as above; set-up: key to activity as substrate (product formation): no activity = 10 μg enzyme produced less than 0.1 nmol product per min (determined fluorimetrically); settings: isozyme 1C4, fluorimetric; for activity as substrate (product formation): 10 μg enzyme; for Kcat / Km: potassium phosphate buffer pH 6, NADPH
# T2 construct: gift of the Penning lab (University of Pennsylvania School of Medicine)
# T2 sequence (P17516 1-323): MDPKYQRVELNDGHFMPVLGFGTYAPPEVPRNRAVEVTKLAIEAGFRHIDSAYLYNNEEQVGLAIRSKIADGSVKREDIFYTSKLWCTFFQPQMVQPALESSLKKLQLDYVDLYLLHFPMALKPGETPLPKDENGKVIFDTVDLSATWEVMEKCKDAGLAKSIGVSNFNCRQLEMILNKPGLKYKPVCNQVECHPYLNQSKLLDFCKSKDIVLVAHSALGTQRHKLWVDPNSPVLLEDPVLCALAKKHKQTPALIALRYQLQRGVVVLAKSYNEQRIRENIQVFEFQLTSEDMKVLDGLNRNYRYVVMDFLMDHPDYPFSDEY
# Excerpt: as §1, §2, §3, §4, §5
# AKR1C2 = target: T3, AKR1C2 (Homo sapiens, UniProt P52895); assay: as above; set-up: key to activity as substrate (product formation): no activity = 10 μg enzyme produced less than 0.1 nmol product per min (determined fluorimetrically); settings: isozyme 1C2, fluorimetric; for activity as substrate (product formation): 10 μg enzyme
# T3 construct: gift of the Penning lab (University of Pennsylvania School of Medicine)
# T3 sequence (P52895 1-323): T1 sequence (Q04828 1-323) with T38V, R47H, L54V, C87S, V151M, R170H, Q172L
# Excerpt: as §1, §2, §3, §4, §5
# AKR1C3 [1] = target: T4, AKR1C3 (Homo sapiens, UniProt P42330); assay: as above; settings: isozyme 1C3, fluorimetric; for activity as substrate (product formation): 10 μg enzyme; for Kcat / Km: potassium phosphate buffer pH 6, NADPH
# T4 construct: gift of Professor Trevor Penning (University of Pennsylvania School of Medicine)
# T4 sequence (P42330 1-323): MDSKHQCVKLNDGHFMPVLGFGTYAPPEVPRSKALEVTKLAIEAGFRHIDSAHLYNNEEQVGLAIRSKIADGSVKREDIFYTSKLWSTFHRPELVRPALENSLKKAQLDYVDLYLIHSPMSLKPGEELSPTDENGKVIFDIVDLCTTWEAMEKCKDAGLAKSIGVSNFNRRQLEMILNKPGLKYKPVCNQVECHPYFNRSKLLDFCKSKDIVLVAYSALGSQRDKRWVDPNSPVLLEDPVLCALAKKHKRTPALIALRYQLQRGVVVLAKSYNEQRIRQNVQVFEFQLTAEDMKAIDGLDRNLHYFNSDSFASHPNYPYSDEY
# Description: The initial reaction rates were used to derive standard kinetic parameters (kcat and Km, Materials and Methods).
# as §2, with “To a STARNA semi-micro fluorimeter cell (with 4 polished windows) was added 100 μL of 1 M potassium phosphate buffer (pH 6), 840 μL doubly deionized water, and 20 μL of 12.5 mM NADPH.” left out, “20 μL of 2.5 mM second generation fluorogenic ketone in acetonitrile (5a-5i) was then added and mixed.” left out
# Binding constant and catalytic rates (Km and kcat) of the second generation of fluorogenic substrates was determined as follows. […] After mixing the aqueous components thoroughly, 20 μL of acetonitrile was added as a cosolvent and mixed well. […] To initiate the reduction, 2 or 4 μL of diluted AKR1C (1:2 to 1:100, depending on the kinetics of a particular isozyme's reduction of a substrate) was then added to the cuvette. Fluorescence arising from the respective alcohol reduction product was then monitored over the course of 3 minutes (Excitation and emission band pass slits both at 4 nm, lamp 700 V, λexc 410 nm, λem 510).
# as §4
# where Ft and F0 represent the fluorescence at times t and 0 minutes, nst is the nanomoles of product in a known concentration of product, and Fst is the fluorescence resulting from nst of product. […] Reported enzymatic kinetic parameters are the average of three independent determinations from three different preparations of substrate and enzyme.
# AKR1C3 [2] = target: T4, AKR1C3; assay: Determination of kinetic parameters for AKR1C3 (fluorogenic substrate 5); settings: Type 2 isozyme of 3α-HSD (AKR 1C3)
# Description: Whether the activity of human enzymes may be imaged by probe 5 was investigated. Type 2 isozyme of 3α-HSD (AKR 1C3) was selected for this study owing to its important physiological role.
# Fluorogenic substrate 5 reduction was monitored on a Hitachi F-4500 fluorimeter in Starna quartz cuvettes fluorometrically in 1 mL systems containing 100 mM potassium phosphate pH 6.0 containing excess of NADPH cofactor (250 μM) and various amounts of the substrate (0.1953-50 μM) dissolved in 4% acetonitrile. […] Cuvettes were mixed thoroughly after addition of cofactor, cosolvent, and substrate. Reactions were initiated by the addition of 4 μL of dilute AKR1C3 (115 μg/mL) and were corrected for nonenzymatic rates. All reactions were followed by monitoring the increase in fluorescence of the product alcohol for 5 minutes at λem 510 nm with λex 440 nm (Excitation and emission band pass slits both at 2.5 nm, lamp 900 V) at 37° C. The initial velocities, expressed in units of nanomoles per minute, were calculated according to previously published procedures (Wierzchowski, J.; Dafeldecker, W. P.; Holmquist, B.; Vallee, B. L. Anal. Biochem. 1989, 178, 57-62): initial rate=[nst×(Ft−F0)/(Fst)]/t where Ft and F0 represent the fluorescence at time t and 0, nst is the nanomoles of the product standard, and Fst is the fluorescence resulting from nst of product. Kinetic constants were approximated using the GraFit (Erithacus Software, Surrey, UK) non-linear regression analysis program to fit the untransformed data to a hyperbolic function as originally described (Wilkinson, G. N. Biochem. J. 1961, 80, 324-332), yielding estimated values of kcat, Km, and their associated standard errors.
SMILES,activity as substrate (product formation) (AKR1C1),activity as substrate (product formation) (AKR1C4),activity as substrate (product formation) (AKR1C2),activity as substrate (product formation) (AKR1C3 [1]),Kcat (AKR1C3 [1]) [s⁻¹],Km (AKR1C3 [1]) [µM],Kcat (AKR1C4) [s⁻¹],Km (AKR1C4) [µM],"Kcat (AKR1C2; potassium phosphate buffer pH 6, NADPH) [s⁻¹]",Kcat (AKR1C3 [2]) [s⁻¹],Km (AKR1C3 [2]) [µM]
CC(C)C(=O)c1cc(=O)oc2c3c4c(cc12)CCCN4CCC3,no activity,no activity,no activity,no activity,,,,,,,
O=C(c1cc(=O)oc2c3c4c(cc12)CCCN4CCC3)C1CCCCC1,no activity,no activity,no activity,no activity,,,,,,,
O=C1CCc2c1c1cc3c4c(c1oc2=O)CCCN4CCC3,,no activity,,,0.12,0.13,,,,,
CC(=O)c1cc(=O)oc2cc(N(C)C)ccc12,,,,,0.145,4.3,0.035,14.8,,,
CC(=O)c1cc(=O)oc2cc3c(cc12)CCCN3,no activity,no activity,,,0.155,4.3,,,0.00983,,
CC(=O)c1cc(=O)oc2c3c(ccc12)NCCC3,,,,,0.115,8.3,0.0233,40.2,,,
"C[C@]12CCC(=O)C[C@@H]1CC[C@@H]1[C@@H]2CC[C@]2(C)[C@@H](O)CC[C@@H]12 [5α-dihydrotestosterone, reference compound]",,,,,0.00417,26,,,,0.00417,26
CC(=O)c1cc(=O)oc2c3c4c(cc12)CCCN4CCC3 [drawing 207],,,,,0.125,1.1,0.00633,20.6,,,
O=C(c1ccccc1)c1cc(=O)oc2c3c4c(cc12)CCCN4CCC3 [drawing 210],,,,,0.09,0.051,0.0103,6.2,,,
CC(=O)c1c(Br)c(=O)oc2c3c4c(cc12)CCCN4CCC3 [drawing 212],no activity,no activity,no activity,no activity,,,,,,,
CC(=O)c1c(-c2ccccc2)c(=O)oc2c3c4c(cc12)CCCN4CCC3 [drawing 213],no activity,no activity,no activity,no activity,,,,,,,
